According to US8841083B2, “PSA capture agents, compositions, methods and preparation thereof” (California Institute of Technology, priority 2011, dated 2014):

Experiments:
free PSA [1] = target: T1, free PSA (Homo sapiens, UniProt P07288); assay: Enzyme activity assay of PSA with chymotrypsin substrate Suc-Arg-Pro-Tyr-pNA; format: biochemical; conditions: for minimum peptide concentration affecting the activity: PSA 333 nM
T1 construct: purchased Scripps Laboratories P0725
Protocol: The enzyme activity of free PSA was studied in the presence of capture agent and the chymotrypsin substrate Suc-Arg-Pro-Tyr-pNA (AnaSpec, San Jose, Calif.) (see, e.g., Wu 2000). PSA (333 nM) was incubated with a 1-100-fold fold molar excess of capture agent in TBS (25 mM Tris, 150 mM NaCl) buffer, pH 7.8, for 1 hour at 23° C. Separately, the inhibitory effect of Zn^2+ on the enzyme activity of PSA was studied by including 1-200 μM ZnCl2 in the reaction buffer as a control. After addition of substrate to a final concentration 0.4 mM, the absorbance was monitored at 5-min intervals over 80 min at 405 nm on a Beckman Coulter DTX880 photometer (Brea, Calif.). Enzyme activity of PSA was tested in the absence of both Zn^2+ and capture agent to provide a measure of basal activity. All assays were performed in triplicate.

free PSA [2] = target: T1, free PSA; assay: Dot blot of serially diluted free PSA probed with biotinylated capture agent; format: binding; conditions: for lower limit of detection: free PSA on nitrocellulose, 0.1 μM capture agent
Protocol: Serially diluted free PSA (Scripps Laboratories #P0725) in PBS pH 7.4 was applied to nitrocellulose by micropipette. The membrane was blocked at 4° C. for 2 hours in 5% non-fat dry milk in TBS (25 mM Tris, 150 mM NaCl, pH 7.25). The membrane was washed with TBS (3×). The biotinylated PSA capture agent was prepared at 0.1 μM in 0.5% milk in TBS+0.03% DMSO (v/v) and incubated over the membrane at 4° C. overnight. After washing with TBS (3×), the membrane was further subjected to 0.1 μg/mL HRP-conjugated Streptavidin (Abcam) in TBS containing 0.02% Tween20 (v/v) for 30 min at 4° C.

free PSA [3] = target: T1, free PSA; assay: Pull-down assay and Western blot; format: binding; conditions: 1 μg free PSA in TBS buffer
Protocol: The pull-down assay assessed the specificity of a PSA capture agent by measuring its ability to purify a protein from complex media; bound to the protein in buffer or human serum in solution. The PSA/capture agent complex was then physically isolated from the sample with solid-phase affinity resins. The captured samples were separated by SDS-PAGE for Western blot analysis.
Pull-down detection of PSA was performed using a modified immunoprecipitation technique that incorporated PSA capture agent rather than antibody. […] A third sample contained biotinylated PSA capture agent (0.3-0.5 μg/mL) and 1 μg free PSA in 2 mL TBS, and similarly interacted at 4° C. overnight.
Proteins were captured by BSA-blocked Dynabeads® M-280 Streptavidin (Invitrogen, #112-05D) under rotation at 4° C. for 4 hours (50 μL of 50% slurry per pull-down condition). Proteins were eluted from beads in reducing Laemmli buffer, and beads were separated from the serum or buffer by DynaMag™-Spin magnet (Invitrogen, #123-20D). Samples were subjected to 4-20% SDS-PAGE separation and electrophoretically transferred to a nitrocellulose membrane in 25 mM Tris, 192 mM Glycine, pH 8.3, containing 20% (v/v) methanol (Bio-Rad Laboratories, Hercules, Calif.) at 100 V for 45 min. Following transfer, the nitrocellulose membrane was blocked at 4° C. for 2 hours in 5% non-fat dry milk in TBS. […]

free PSA [4] = target: T1, free PSA; assay: Sandwich ELISA with capture agent as detection agent, paired with PS6 capture antibody; format: binding
Protocol: MAXISORP™ microtiter plates were coated with anti-human PSA (PS6, Abcam) at 10 μg/mL in PBS pH 7.4 for 2 hours at room temperature. After washing each microwell with PBS (3×), the plate was filled with 5% non-fat dry milk in TBS (25 mM Tris, 150 mM NaCl, pH 7.25) and blocked for 2 h at room temperature. Serially diluted free PSA (Scripps Laboratories #P0725) in 1% BSA in TBS was incubated across the microtiter plate for 2 h at room temperature. The plate was washed with 1% BSA in TBS (5×), and then 2 μM biotinylated capture agent in 1% BSA in TBS+0.1% DMSO (v/v) was incubated for 1 hour at room temperature. After washing all microwells with 1% BSA in TBS (5×), 0.1 μg/mL Streptavidin Poly-HRP conjugate (Pierce, Ill.) in 1% BSA in TBS was incubated for 30 min at room temperature. The plate was washed with 1% BSA in TBS (10×), followed by TBS (2×), and then developed by adding QuantaRed™ Enhanced Chemifluorescent HRP Substrate (Pierce, Ill.). Using an excitation wavelength of 535 nm, fluorescent emission at 595 nm was recorded by Beckman Coulter DTX880 photometer (Brea, Calif.) as a function of target concentration. The titration curves were fit using a four-parameter regression curve fitting program (Origin 8.5, Northampton, Mass.). Assays were performed in triplicate.

T1 sequence (P07288 25-261): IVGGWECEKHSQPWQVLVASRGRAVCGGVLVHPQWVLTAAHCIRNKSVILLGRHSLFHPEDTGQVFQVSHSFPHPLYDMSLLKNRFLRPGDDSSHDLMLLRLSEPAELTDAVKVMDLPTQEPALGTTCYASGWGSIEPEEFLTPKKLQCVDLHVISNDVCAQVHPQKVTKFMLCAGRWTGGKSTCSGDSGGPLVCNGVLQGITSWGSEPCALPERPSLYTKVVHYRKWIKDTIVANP

## [Cl-].[Cl-].[Zn+2] [Zn^2+, zinc chloride, reference compound]
Free PSA [1]
  inhibition of PSA enzyme activity: inhibits the enzyme activity of PSA

## biotin-PEG5-cyclic(CVFAHNYDYLVC) [Anchor Ligand]
Free PSA [1]
  minimum peptide concentration affecting the activity: 0.250 µM

## biotin-PEG5-cyclic(CVFAHNYDYLVC)-Tz5-Gllffk [1,5Tz-biligand]
Free PSA [2]; dot blot, triazole regioisomers
  limit of detection compared to 1,4Tz-biligand: improved limit of detection
Free PSA [2]
  lower limit of detection: 0.14 µg
Free PSA [1]
  minimum peptide concentration affecting the activity: 0.159 µM

## biotin-PEG5-cyclic(CVFAHNYDYLVC)-Tz5-Gllffk-Tz5-rrivk [PSA capture agent triligand]
Free PSA [3]
  pull-down detection of free PSA: detected free PSA in buffer
Free PSA [2]; dot blot
  performance compared to anti-human PSA monoclonal antibody PS1: superior performance
  sensitivity compared to commercial PSA monoclonal antibodies PS2, PS6: less sensitive
Free PSA [2]
  lower limit of detection: 0.14 µg
Free PSA [4]; free PSA, sandwich ELISA with PS6 capture antibody
  limit of quantitation (LOQ): ~4 ng/mL
Free PSA [4]; sandwich ELISA
  enhanced sensitivity over the PSA capture agent biligand: > 2 fold

## biotin-PEG5-cyclic(CVFAHNYDYLVC)-Tz-4-Gllffk [1,4Tz-biligand]
Free PSA [2]
  lower limit of detection: 0.28 µg
